Experimental data reported in patent US20230348358A1, “Serotonin Receptor Modulators” (Northeastern University, priority 2020, published 2023).
“Also recorded” adds a separate entry of the source. Read-outs that look alike come from different tables or passages of the source.

Assays:
[1] = system: C57BL/6J mice; assay: DOI-elicited head-twitch response (HTR); format: in vivo, mouse
Description: The 5-HT2A receptor is a predominant 5-HT receptor in the cortex, and serves important excitation modulation functions on glutamate pyramidal and GABA neurons.

[2] = target: T1, 5HT2B receptors (Homo sapiens, UniProt P41595); assay: 5HT2B functional assays; format: cell-based
T1 construct: host or cells: HEK293, transient
T1 sequence (P41595 whole entry): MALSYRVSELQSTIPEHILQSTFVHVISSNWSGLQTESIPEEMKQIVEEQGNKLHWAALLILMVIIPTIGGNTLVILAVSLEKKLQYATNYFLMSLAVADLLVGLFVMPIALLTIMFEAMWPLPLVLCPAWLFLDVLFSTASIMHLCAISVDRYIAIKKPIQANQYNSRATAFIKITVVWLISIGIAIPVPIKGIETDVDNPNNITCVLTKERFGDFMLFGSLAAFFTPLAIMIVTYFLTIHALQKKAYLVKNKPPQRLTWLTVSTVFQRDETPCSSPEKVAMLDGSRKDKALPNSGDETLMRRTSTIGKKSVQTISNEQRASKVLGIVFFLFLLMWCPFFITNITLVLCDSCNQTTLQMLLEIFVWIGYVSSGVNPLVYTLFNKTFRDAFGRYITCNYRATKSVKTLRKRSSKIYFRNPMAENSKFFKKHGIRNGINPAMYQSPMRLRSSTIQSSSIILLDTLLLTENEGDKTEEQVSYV

[3] = target: T2, 5HT7 (Homo sapiens, UniProt P34969); assay: Affinity (Ki) at 5HT7, HEK293 cells stably expressing 5HT7
T2 sequence (P34969 whole entry): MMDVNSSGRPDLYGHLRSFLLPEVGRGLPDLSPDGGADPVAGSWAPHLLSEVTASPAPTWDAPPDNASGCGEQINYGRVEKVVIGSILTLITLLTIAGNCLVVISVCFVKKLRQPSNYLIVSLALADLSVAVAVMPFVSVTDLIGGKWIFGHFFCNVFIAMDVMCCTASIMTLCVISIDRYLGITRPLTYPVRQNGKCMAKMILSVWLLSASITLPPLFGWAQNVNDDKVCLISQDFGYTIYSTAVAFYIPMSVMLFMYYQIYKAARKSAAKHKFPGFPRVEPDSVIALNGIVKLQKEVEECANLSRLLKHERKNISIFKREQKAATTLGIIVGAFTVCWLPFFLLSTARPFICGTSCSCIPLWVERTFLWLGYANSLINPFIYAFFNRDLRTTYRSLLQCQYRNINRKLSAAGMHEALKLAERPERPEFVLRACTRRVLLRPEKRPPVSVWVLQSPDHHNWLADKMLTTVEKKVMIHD

[4] = system: C57BI/6J mice; assay: Social interactions between littermates; format: in vivo, mouse; conditions: 5.6 mg/kg
Description: After behavioral testing was complete, blind scorers categorized mice into two groups based on number of rears and initiated social interactions, and the two groups differentiated vehicle from (2S)-5-FPT-treated mice with 100% accuracy.

[5] = system: C57BI/6J mice; assay: MK-801 elicited stereotypic rotations and hyperlocomotion; format: in vivo, mouse
Description: Regarding glutamate neurotransmission in stereotypy, the NMDA receptor antagonist, MK-801, characteristically elicits stereotypic rotations that appear to mimic monogenetic stereotypy observed in Fmr1 KO mice. Furthermore, mutations and autoantibodies of the NMDA glutamate receptor that decrease its function are causally linked to ASD, intellectual disabilities, and psychiatric symptoms in humans.

[6] = target: T3, D2 receptors (Homo sapiens, UniProt P14416); assay: Affinity at dopamine D2 receptors; format: binding
T3 construct: host or cells: HEK293, transient
T3 sequence (P14416 whole entry): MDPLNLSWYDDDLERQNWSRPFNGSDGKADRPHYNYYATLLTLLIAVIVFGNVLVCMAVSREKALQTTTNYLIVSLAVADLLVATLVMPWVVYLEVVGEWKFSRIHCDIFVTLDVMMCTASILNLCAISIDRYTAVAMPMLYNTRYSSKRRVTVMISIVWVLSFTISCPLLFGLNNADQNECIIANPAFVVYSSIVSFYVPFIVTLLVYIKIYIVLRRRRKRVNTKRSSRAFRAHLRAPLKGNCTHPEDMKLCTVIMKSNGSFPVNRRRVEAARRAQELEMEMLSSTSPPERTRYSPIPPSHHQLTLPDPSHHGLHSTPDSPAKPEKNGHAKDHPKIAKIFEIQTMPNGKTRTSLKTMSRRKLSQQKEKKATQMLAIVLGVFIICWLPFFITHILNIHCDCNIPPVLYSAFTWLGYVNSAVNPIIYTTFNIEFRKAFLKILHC

[7] = system: mice (C57BL/6J, FVB, C58/J); assay: Locomotor behavior, compound on its own; format: in vivo, mouse; conditions: compound on its own or in the DOI assay; listed as (2S)-5-FPT, HCl
[8] = system: Fmr1 knockout and wild-type mice; assay: c-Fos immunohistochemistry in brain of wild-type and Fmr1 knockout mice; format: in vivo, mouse; conditions: for c-Fos expression in the inferior colliculus: juvenile Fmr1 knockout mice, 30 seconds 120 dB alarm
Method: Brains are excised and post-fixed overnight in 4% paraformaldehyde, followed by 20% glycerol in TBS for at least 24 hrs. Coronal sections (40 μm) traversing regions of interest then be collected using a Leica CM1950 cryostat, and placed in cold TBS. c-Fos IHC is performed using free-floating IHC methods as have been previously described, but with a new primary antibody. A protocol with the Abcam [2H2] (ab208942) mouse monoclonal antibody has been recently optimized, which has essentially no cross-reactivity. An HRP-conjugated secondary antibody is used for visualization by the biotin-streptavidin technique using 3,3′-diaminobenzidine as the chromagen (Vectastain Elite, Vector Laboratories). Examination of c-Fos expression in frontal cortex, hypothalamus, nucleus accumbens, ventral tegmental area, amygdala, BNST, and hippocampus are conducted.
On the basis of the distribution of FMRP (Fragile X mental retardation protein) in the adult mouse brain and considering neural systems implicated in cognitive and neuropsychiatric symptoms (e.g., anxiety, sensory hypersensitivity, and social deficits) present in FXS and ASD, the effects of FPT were evaluated on c-Fos expression in the hippocampus (CA1, CA3, and dentate gyrus (DG)), the basolateral amygdala (ventral (BLAv), posterior (BLAp), and anterior (BLAa)), the somatosensory (SS) cortex, the hypothalamus (periventricular hypothalamic nucleus, intermediate (PVi), posterior hypothalamic nucleus (PH), and dorsomedial nucleus of the hypothalamus (DMH)), the paraventricular nucleus of the thalamus (PVT), and the ventral retrosplenial area (RSPv). Shown in FIG. 15A and FIG. 15B are results from analyses of c-Fos expression in CA3 and the BLAa, respectively. There were no main effects of the independent variables on c-Fos in CA3; however, there was a significant treatment effect in BLAa (F(1, 12)=14.22, P=0.0027). […] The effect was large, but the difference was not statistically significant (P=0.0871, d=1.54).

[9] = target: T2, 5HT7; assay: 5HT7 function, Gs-cAMP signaling (HEK293 cells); format: cell-based; design: ATCC CRL-1573 (cells); conditions: for Function at 5HT7: cAMP signaling, HCl
Description: It is certain that the C(5) substituent impacts function. […] In FIG. 3, results of measured (S)-5-PAT scaffold yields with various function as 5HT7 ligands are compared with AS-19 and clozapine.

[10] = Plasma and brain concentrations by LC-MS/MS after systemic administration; format: in vivo, mouse; conditions: for concentration at 30 min / concentration at 60 min / concentration at 90 min: 3.0 mg/kg subcutaneous, mean (SEM); for concentration at 30 min: 30 min after injection; for concentration at 60 min: 60 min after injection; for concentration at 90 min: 90 min after injection
Description: (2S)-5-FPT is neurobehaviorally active after oral administration.

[11] = system: FVB mice; assay: Marble burying; conditions: mouse, in vivo
Method: For measurement of marble burying (FIG. 7), FVB mice were placed individually, for 10 min, in clean boxes (6 in. ×10 in. ×5 in.) containing 18 clear marbles atop fresh home-bedding. Marbles buried (i.e., marbles 50% covered with bedding) were calculated after the test session.

[12] = target: T4, 5HT1A (Homo sapiens, UniProt P08908); assay: 5HT1A function, Gαi cAMP signaling (CHO cells); format: cell-based
T4 sequence (P08908 1-422): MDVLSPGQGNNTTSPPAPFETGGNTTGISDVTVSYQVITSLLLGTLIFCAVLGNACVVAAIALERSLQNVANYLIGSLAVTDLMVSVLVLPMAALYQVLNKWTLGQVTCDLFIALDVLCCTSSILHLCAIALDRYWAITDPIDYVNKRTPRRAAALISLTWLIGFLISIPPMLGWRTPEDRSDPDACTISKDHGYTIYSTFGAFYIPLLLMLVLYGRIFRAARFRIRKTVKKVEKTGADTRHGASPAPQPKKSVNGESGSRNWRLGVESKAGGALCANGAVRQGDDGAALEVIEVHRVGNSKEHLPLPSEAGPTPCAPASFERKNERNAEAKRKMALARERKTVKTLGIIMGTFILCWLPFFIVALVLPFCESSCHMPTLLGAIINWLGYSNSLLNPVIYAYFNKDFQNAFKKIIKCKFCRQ

[13] = system: 50 CNS/peripheral sites; assay: NIMH PDSP / NIDA evaluation at 50 CNS/peripheral sites; format: binding
[14] = mouse, brain, read-out: Brain concentration
[15] = mouse, plasma, read-out: Plasma concentration

Compound: CN(C)[C@H]1CCc2c(cccc2-c2ccccc2F)C1.Cl [(S)-5-FPT, (2S)-5-(2-fluorophenyl)-N,N-dimethyl-1,2,3,4-tetrahydronaphthalen-2-amine HCl]
- DOI HTR at 3 hours post-administration ([1]; 5.6 mg/kg, 3 hours post-administration): did not block the DOI HTR
- Time for which attenuation of the DOI HTR remained significant ([1]; 5.6 mg/kg, post-administration): up to 2 hours
- DOI-elicited HTR ([1]; mouse, in vivo, listed as (2S)-5-FPT, HCl): dose-dependently attenuated the DOI-elicited HTR; also recorded: significantly attenuated
- Oral activity ([1]; oral administration): orally active
- 5HT2B functional activity [2]: devoid of 5HT2B activity up to 100 μM
- 5-HT7 affinity of (S)-enantiomer over (R)-enantiomer [3]: about 80 times
- Ki ([3]; Affinity Ki ± SEM at 5HT7): 5 nM
- Ki ([3]; read-out: Affinity Ki ± SEM at 5HT7, HCl): 5.3 ± 2 nM
- Grooming [4]: decreasing grooming
- Number of initiated social interactions ([4]; listed as (2S)-5-FPT, HCl): significantly increases the number of initiated social interactions
- Hyperlocomotion caused by MK-801 ([5]; 5.6 mg/kg): significantly decreased hyperlocomotion
- MK-801 elicited stereotypical rotations ([5]; 5.6 mg/kg): significantly reduced stereotypical rotations
- Stereotypic rotational behavior, compound alone ([5]; without MK-801): neither (2S)-5-FPT nor AMP caused stereotypic rotational behavior
- Affinity at D2 receptors [6]: poor affinity
- Locomotor behavior [7]: did not alter locomotion; also recorded: without altering locomotor behavior on its own
- c-Fos expression in CA3 region of the hippocampus ([8]; WT and KO mice): did not significantly increase c-Fos expression
- c-Fos expression in the inferior colliculus [8]: did not affect the number of c-Fos positive cells
- c-Fos expression in the inferior colliculus ([8]; listed as FPT, HCl): no effect
- c-Fos expression in other brain regions ([8]; mouse, in vivo): did not significantly alter c-Fos expression in any other brain region examined
- EC50 [9]: 34 nM
- EMAX vs AS-19, 5-HT7 Gs-cAMP signaling [9]: 33%
- Function at 5HT7 [9]: Partial agonist
- Function at 5HT7 ([9]; listed as (2S)—S-FPT): partial agonist
- concentration at 30 min [10, 14]: 1780 ng/g
- concentration at 60 min [10, 14]: 2160 ng/g
- concentration at 90 min [10, 14]: 1460 ng/g
- Blood-brain barrier penetration ([10]; mouse, in vivo): readily crosses the blood-brain barrier
- concentration at 30 min [10, 15]: 114 ng/mL
- concentration at 60 min [10, 15]: 118 ng/mL
- concentration at 90 min [10, 15]: 70 ng/mL
- Peripheral clearance ([10]; plasma levels lower than brain): rapidly cleared in the periphery
- Marble burying (repetitive behavior) [11]: reduces or eliminates repetitive behavior in all models
- Function at 5HT1A [12]: Partial agonist
- Activity at 50 CNS/peripheral sites [13]: without activity at 50 CNS/peripheral sites
